Where two headings read alike, the source gives them in different places.
Experiments:
HRV16 = assay: Rhinovirus-titre assay; format: cell-based, human rhinovirus; settings: Human rhinovirus sp.; for inhibition at 0.04 µg/mL: cell not marked b, test compounds 0.04 μg/mL per method (footnote b, 0.2 μg/mL)
Experimental: MRC5 cells (human lung fibroblast, ATCC) were infected with 1 MOI (multiplicity of infection of 1.0) of HRV16 and incubated for 1 hr at 33° C. with gentle shaking to stimulate adsorption. The cells were then washed with PBS, fresh media was added and the cells were incubated for a further 96 hr. The supernatant was collected and 10-fold serial dilutions of virus containing supernatant were prepared. All titrations were performed by infecting confluent Hela cell monolayers with serially diluted supernatant (10^−1-10^−5) and assessing the cytopathic effect by visual inspection 4 days after infection. The amount of virus required to infect 50% of Hela cells was calculated in each treatment as TCID50. Test compounds (0.04 μg/mL) were added 2 hr before HRV infection and 1 hr after infection when non-infected HRV was washed out. The anti-HRV activity of each test compound was determined as the difference of the log TCID50 of HRV16 in the presence of the compound with the log TCID50 of HRV16 in the absence of compound. […]

[1] = test system: TNFα release in d-U937 cells; assay: LPS-induced TNFα release in d-U937 cells; format: cell-based; settings: Homo sapiens, dU937, LPS 0.1 μg/mL, 4 hr, relative to 10 μg/mL BIRB796, read-out: d-U937 (LPS) TNFα REC50
Experimental: (§1) U937 cells, a human monocytic cell line, were differentiated to macrophage-type cells by incubation with phorbol myristate acetate (PMA; 100 ng/mL) for 48 to 72 hr, whereupon the cells become adherent. […] Coli: O111:B4, Sigma) for 4 hr. The supernatant was collected for determination of TNFα and IL-8 concentrations by sandwich ELISA (Duo-set, R&D systems). […] The relative 50% effective concentration (REC50) was determined from the resultant concentration-response curve. The inhibition of IL-8 production was calculated at each concentration of test compound by comparison with vehicle control.

[2] = test system: Differentiated U937 cells; assay: MTT assay: cell viability; format: cell-based, human; settings: for d-U937 MTT Assay 4 h: 5% FCS; for d-U937 MTT Assay 24 h: 10% FCS
Experimental: Differentiated U937 cells were pre-incubated with each test compound under two protocols: the first for 4 hr in 5% FCS and the second in 10% FCS for 24 h. The supernatant was replaced with 200 μL of new media and 10 μL of MTT stock solution (5 mg/mL) was added to each well. After incubation for 1 hr the media were removed, 200 μL of DMSO was added to each well and the plates were shaken lightly for 1 hr prior to reading the absorbance at 550 nm. The percentage loss of cell viability was calculated for each well relative to vehicle (0.5% DMSO) treatment. Consequently an apparent increase in cell viability for drug treatment relative to vehicle is tabulated as a negative percentage.

[3] = test system: IL-8 release in d-U937 cells; assay: LPS-induced IL-8 release in d-U937 cells; format: cell-based; settings: Homo sapiens, read-out: d-U937 (LPS) IL-8 IC50
Experimental: as §1

[4] = test system: TNFα release in THP-1 cells; assay: LPS-induced TNFα release in THP-1 cells; format: cell-based; settings: Homo sapiens, read-out: THP1 (LPS) TNFα IC50
Experimental: The inhibition of TNFα production was calculated at each concentration by comparison with vehicle control.

[5] = test system: ICAM-1 expression in BEAS2B cells; assay: Poly I:C-induced ICAM-1 induction in BEAS2B cells; format: cell-based; settings: Homo sapiens, BEAS-2B, read-out: BEAS2B (polyIC) ICAM1 IC50
Experimental: Poly I:C (1 μg/mL) (Invivogene Ltd., San Diego, Calif.) was transfected into BEAS2B cells (human bronchial epithelial cells, ATCC) with Oligofectamine (Invitrogen, Carlsbad, Calif.). Cells were pre-incubated with final concentrations of test compounds for 2 hr and the level of ICAM1 expression on the cell surface was determined by cell-based ELISA. […] The cells were washed with PBS-Tween and incubated with the secondary antibody (HRP-conjugated anti-rabbit IgG, Dako Ltd., Glostrup, Denmark).

cSrc enzyme = cSrc enzyme (Homo sapiens (Human), UniProt P12931); assay: c-SRC enzyme inhibition assay (FRET, Z'-LYTE); format: biochemical; settings: read-out: Enzyme Profile: IC50 Values cSrc
HCK enzyme = HCK enzyme (Homo sapiens (Human), UniProt P08631); assay: HCK enzyme inhibition assay (FRET, Z'-LYTE); format: biochemical; settings: read-out: Enzyme Profile: IC50 Values HCK
p38 MAPK γ (MAPK12) = p38 MAPK γ (MAPK12) (Homo sapiens (Human), UniProt P53778); assay: Enzyme inhibition assay (FRET, Z-LYTE), p38 MAPK gamma; format: biochemical; settings: read-out: Enzyme Profile: IC50 Values p38γ
Experimental: (§2) The enzyme inhibitory activity of test compounds was determined by fluorescence resonance energy transfer (FRET) using synthetic peptides labelled with both donor and acceptor fluorophores (Z-LYTE, Invitrogen). Recombinant, phosphorylated p38 MAPK γ (MAPK12:Millipore) was diluted in HEPES buffer, mixed with compound at the desired final concentrations and incubated for 2 hr at RT. The FRET peptide (2 μM) and ATP (100 μM) were next added to the enzyme/compound mixture and incubated for 1 hr. Development reagent (protease) was added for 1 hr prior to detection in a fluorescence microplate reader. The site-specific protease only cleaves non-phosphorylated peptide and eliminates the FRET signal. Phosphorylation levels of each reaction were calculated using the ratio of coumarin emission (donor) over fluorescein emission (acceptor) with high ratios indicating high phosphorylation levels and low ratios indicating low phosphorylation levels.

p38 MAPK alpha (MAPK14) = p38 MAPK alpha (MAPK14) (Homo sapiens (Human), UniProt Q16539); assay: Enzyme inhibition assay (FRET, Z-LYTE), p38 MAPK alpha via MAPKAP-K2 activation; format: biochemical; settings: read-out: Enzyme Profile: IC50 Values p38α
Experimental: as §2
For p38 MAPK alpha (MAPK14: Invitrogen), enzyme activity was evaluated indirectly by determining activation/phosphorylation of the down-stream molecule, MAPKAP-K2. The p38 MAPK a protein was mixed with compound for 2 hr at RT. […] Development reagent was then added and the mixture incubated for 1 hr before detection by fluorescence completed the assay protocol.
The enzyme inhibitory activity of compound was determined by fluorescence resonance energy transfer (FRET) using synthetic peptides labelled with both donor and acceptor fluorophores (Z′-LYTE, Invitrogen).

[6] = HRV16, cell marked b: performed at 0.2 μg/mL, read-out: HRV titre (inhibitory %): % inhibition observed vs. HRV16 infection control
[7] = HRV16, read-out: HRV titre (inhibitory %): % inhibition observed vs. HRV16 infection control
[8] = dU937, d-U937 cells, LPS 0.1 μg/mL, 4 hr
[9] = BEAS2B cells, poly I:C 1 μg/mL, 18 hr

SMILES	EC50 [1] [nM]	IC50 [3, 8] [nM]	IC50 ([4]; THP-1 cells, LPS 3 μg/mL, 4 hr) [nM]	IC50 (cSrc enzyme) [nM]	IC50 (HCK enzyme) [nM]	IC50 (p38 MAPK γ (MAPK12)) [nM]	IC50 (p38 MAPK alpha (MAPK14)) [nM]	inhibition at 0.2 µg/mL (HRV16; [6]) [%]	d-U937 MTT Assay 4 h ([2]; 1 μg/ml)	d-U937 MTT Assay 24 h ([2]; 1 μg/ml)	inhibition at 0.04 µg/mL (HRV16; [7]) [%]	IC50 [5, 9] [nM]	d-U937 MTT Assay 4 h ([2]; performed at 10 μg/mL)	d-U937 MTT Assay 24 h ([2]; performed at 10 μg/mL)	inhibition at 0.2 µg/mL (HRV16; [7]) [%]	IC50 ([3]; dU937, 4 h) [nM]	IC50 ([4]; THP-1, 4 h) [nM]	IC50 ([5]; 18 h) [nM]
Cc1ccc(-n2nc(C(C)(C)C)cc2NC(=O)Nc2ccc(Oc3ccnc4[nH]c(=O)cnc34)c3ccccc23)s1 [Example 21]	7.1	3.3	11	–	–	–	–	–	− (− and + indicate the result is below and above the no significant effect threshold, respectively (<30% inhibition at a concentration of 1 μg/ml))	− (− and + indicate the result is below and above the no significant effect threshold, respectively (<30% inhibition at a concentration of 1 μg/ml))	80	–	–	–	–	–	–	–
COc1ccc(-n2nc(C(C)(C)C)cc2NC(=O)Nc2ccc(OCc3ccnc4[nH]c(=O)cnc34)c3ccccc23)cc1 [Example 23]	30	90	–	35	22	193	12	–	− (− and + indicate the result is below and above the no significant effect threshold, respectively (<30% inhibition at a concentration of 1 μg/ml))	− (− and + indicate the result is below and above the no significant effect threshold, respectively (<30% inhibition at a concentration of 1 μg/ml))	–	23	–	–	–	–	–	–
COCC(=O)Nc1cc(COc2ccc(NC(=O)Nc3cc(C(C)(C)C)nn3-c3ccc(C)cc3)c3ccccc23)ccn1 [Ref. 1, N-(4-((4-(3-(3-tert-butyl-1-p-tolyl-1H-pyrazol-5-yl)ureido)naphthalen-1-yloxy)methyl)pyridin-2-yl)-2-methoxyacetamide, reference compound]	0.9	–	–	–	–	–	–	–	–	–	–	–	− ^d (− and + indicate the result is below and above the no significant effect threshold, respectively (<30% inhibition at a concentration of 1 μg/ml))	− ^d (− and + indicate the result is below and above the no significant effect threshold, respectively (<30% inhibition at a concentration of 1 μg/ml))	96	92	2.3	618

The remaining molecules from weak to strong by EC50 [1], led by results:

EC50 [1] [nM]	IC50 [3, 8] [nM]	IC50 ([4]; THP-1 cells, LPS 3 μg/mL, 4 hr) [nM]	IC50 (cSrc enzyme) [nM]	IC50 (HCK enzyme) [nM]	IC50 (p38 MAPK γ (MAPK12)) [nM]	IC50 (p38 MAPK alpha (MAPK14)) [nM]	SMILES	inhibition at 0.2 µg/mL (HRV16; [6]) [%]	d-U937 MTT Assay 4 h ([2]; 1 μg/ml)	d-U937 MTT Assay 24 h ([2]; 1 μg/ml)	inhibition at 0.04 µg/mL (HRV16; [7]) [%]	IC50 [5, 9] [nM]	d-U937 MTT Assay 4 h ([2]; performed at 10 μg/mL)	d-U937 MTT Assay 24 h ([2]; performed at 10 μg/mL)	inhibition at 0.2 µg/mL (HRV16; [7]) [%]	IC50 ([3]; dU937, 4 h) [nM]	IC50 ([4]; THP-1, 4 h) [nM]	IC50 ([5]; 18 h) [nM]
5.5	7	8.8	–	–	–	–	CC(C)(C)c1cc(NC(=O)Nc2ccc(Oc3ccnc4[nH]c(=O)cnc34)c3ccccc23)n(-c2ccc(Cl)c(Cl)c2)n1 [Example 32, 1-(3-(tert-butyl)-1-(3,4-dichlorophenyl)-1H-pyrazol-5-yl)-3-(4-((3-oxo-3,4-dihydropyrido[2,3-b]pyrazin-8-yl)oxy)naphthalen-1-yl)urea]	–	− (− and + indicate the result is below and above the no significant effect threshold, respectively (<30% inhibition at a concentration of 1 μg/ml))	− (− and + indicate the result is below and above the no significant effect threshold, respectively (<30% inhibition at a concentration of 1 μg/ml))	80	10	–	–	–	–	–	–
4.8	> 1890	4.1	–	–	–	–	Cc1ccc(-n2nc(C(C)(C)C)cc2NC(=O)Nc2ccc(OCCN3CCOCC3)c3ccccc23)cc1 [BIRB 796, 1-(3-tert-butyl-1-p-tolyl-1H-pyrazol-5-yl)-3-(4-(2-morpholinoethoxy)naphthalen-1-yl)urea, reference compound]	28	–	–	–	3530	− ^d (− and + indicate the result is below and above the no significant effect threshold, respectively (<30% inhibition at a concentration of 1 μg/ml))	− ^d (− and + indicate the result is below and above the no significant effect threshold, respectively (<30% inhibition at a concentration of 1 μg/ml))	–	–	–	–
1.1	4.3	34	–	–	–	–	Cc1ccc(-n2nc(C(C)C)cc2NC(=O)Nc2ccc(Oc3ccnc4[nH]c(=O)cnc34)c3ccccc23)cc1 [Example 30, 1-(3-isopropyl-1-(p-tolyl)-1H-pyrazol-5-yl)-3-(4-((3-oxo-3,4-dihydropyrido[2,3-b]pyrazin-8-yl)oxy)naphthalen-1-yl)urea]	–	− (− and + indicate the result is below and above the no significant effect threshold, respectively (<30% inhibition at a concentration of 1 μg/ml))	− (− and + indicate the result is below and above the no significant effect threshold, respectively (<30% inhibition at a concentration of 1 μg/ml))	36	27	–	–	–	–	–	–
1.1	5.2	0.7	9	–	72	–	Cc1ccc(-n2nc(C(C)(C)C)cc2NC(=O)Nc2ccc(Oc3ccnc4[nH]c(=O)cnc34)c3ccccc23)cc1 [Example 6]	–	− (− and + indicate the result is below and above the no significant effect threshold, respectively (<30% inhibition at a concentration of 1 μg/ml))	− (− and + indicate the result is below and above the no significant effect threshold, respectively (<30% inhibition at a concentration of 1 μg/ml))	80	11	–	–	–	–	–	–
0.13	–	–	–	–	–	–	COCC(=O)Nc1cc(Oc2ccc(NC(=O)Nc3cc(C(C)(C)C)nn3-c3ccc(C)cc3)c3ccccc23)ccn1 [Ref 2, N-(4-(4-(3-(3-tert-butyl-1-p-tolyl-1H-pyrazol-5-yl)ureido)naphthalen-1-yloxy)pyridin-2-yl)-2-methoxy acetamide, reference compound]	100	− (− and + indicate the result is below and above the no significant effect threshold, respectively (<30% inhibition at a concentration of 1 μg/ml))	− (− and + indicate the result is below and above the no significant effect threshold, respectively (<30% inhibition at a concentration of 1 μg/ml))	–	–	–	–	–	–	–	–

Source: patent US8933228B2, “Respiratory formulations and compounds for use therein” (Respivert, Ltd., priority 2010, dated 2015)
